The results in this text go back to US20220386863A1, “SMART CONTACT LENS FOR DIAGNOSIS AND TREATMENT OF DRY EYE SYNDROME” (priority 2020, published 2022).

For the assay, the system named is anti-VEGF aptamer. The conditions noted are these: for change in current on injection of VEGF: FET sensor with anti-VEGF aptamer, PBS base current, FIG. 2A. An excerpt: Electrodes using a gold thin film and silver nanowires were patterned on a silicon substrate using a photolithography method, and a semi-conductive layer was placed between the electrodes. In this case, silver nanowires were used as a material of the semi-conductive layer. Thereafter, an aptamer (anti-VEGF aptamer) capable of being coupled to a dry eye syndrome biomarker was coupled to the semi-conductive layer.
Specifically, a silver nanowire channel was immersed in an 3-aminopropyldimethyl-ethoxysilane (APDES)/ethanol solution to introduce an amine group, and the silver nanowire channel was immersed in a sodium carbonate buffer including 1 wt % succinic anhydride to substitute the amine group with a carboxyl group. Then, after the silver nanowire channel is immersed in a phosphate buffered saline (PBS) solution, 1-ethyl-3(3-dimethyl aminopropyl)carbodiimide hydro-chloride (EDC) and sulfa N-hydroxysuccinimide (sulfa-NHS) were added to form an amide group. An aptamer solution was introduced into the channel, into which the amide group was introduced, to couple the channel and the probe. ?
A VEGF was injected into the sensor in real time to monitor an intensity of a current flowing in the silver nanowire channel.
Specifically, 200 μL of PBS was dropped onto the FET sensor to set a base current for 30 minutes, and then, a change in current generated by injecting a specific concentration of a VEGF was observed. ?

Read-outs that look alike come from different tables or passages of the source.

For “vascular endothelial growth factor [VEGF]”, the “change in current on injection of VEGF” value (104 pM VEGF injected) is recorded as “no difference in current”, the “change in current on injection of VEGF” value (1.04 nM VEGF injected) is “large change” and the “change in current on injection of VEGF” value (52 nM VEGF injected) is “large change”. Also, the “stabilized current after VEGF injection, averaged per section” value (compared with the initial base current, FIG. 2B) is “higher than an initial base current”.
